Where two headings read alike, the source gives them in different places.
Tests used:
[1] = system: male mice of the dd strain; assay: Analgesic activity by acetic acid writhing method; type: in vivo, mouse (male; details: mouse
Method: (I) Analgesic activity by acetic acid writhing method:
The experiment is carried out according to the method of Koster et al [Fed. Proc., 18, 412 (1959)].
Male mice of the dd strain weighing 19-21 g are used in groups, each consisting of 10 mice. The test compounds, i.e. the compound of formula (I), pentazocine and morphine are administered subcutaneously or orally to the test mice. Immediately after this, 0.2 ml of a 0.7% (v/v) aqueous solution of acetic acid is administered intraperitoneally to the test mice except those which has been administered orally with morphine, to which 0.2 ml of a 0.7% (v/v) aqueous solution of acetic acid is administered intraperitoneally at 15 minutes after a morphine administration. […] At 10 minutes after the administration of acetic acid, the number of writhes is counted for 10 minutes. […] ED50 is calculated according to the method of Litchfield and Wilcoxon [J. Pharmacol. & Exper. Therap., 96, 99 (1949)].

[2] = system: male mice of the dd strain; assay: animal or person; type: in vivo, mouse (male; details: tail flick, mouse, subcutaneous administration
Method: (II) Analgesic activity by Tail Flick method:
The experiment is carried out according to the method of Tail Flick (D'Amour-Smith method) [J. Pharmacol., 72, 74 (1941)].
A light beam of an infrared lamp (100 V; 250W) is passed through a hole having a diameter of a half inch and is irradiated onto the end of the tail of each mouse (male dd strain; weight: 19-21 g) to effect a heat stimulation. […] The compound of formula (I), pentazocine or morphine is administered subcutaneously to the mice. At 15, 30, 60, 90 and 120 minutes after the administration, the heat stimulation is repeatedly carried out to the mice in a similar manner to that described above and after each heat stimulation the time until the flick reaction occurs is measured. […] ED50 is calculated according to the above-mentioned method of Litchfield and Wilcoxon.

[3] = system: male rats of the Wistar strain; assay: Analgesic activity by bradykinin method; type: in vivo, rat (male; details: rat
Method: (IV) Analgesic activity by bradykinin method:
The experiment is carried out according to the method of Abe et al [Nihon Yakuri Gakkai Si (J. Japanese Pharmacological Academy) 67, 9 (1971)].
(§1) In this experiment, male rats of the Wistar strain weighing 210-260 g were used in groups, each consisting of 10 rats. A cannula is inserted into the right carotid artery of the rat anesthetized with ether. After recovering completely from ether anesthesis, 0.2 ml of a physiological salt solution containing bradykinin in an amount of about 2 μg/ml is injected retrogradely to the rat through the cannula. […] The compound of formula (I), pentazocine or morphine is administered subcutaneously or orally to the rat. At 15, 30, 60, 90 and 120 minutes after the administration of the test compound, bradykinin is injected repeatedly to the rat in a similar manner to that described above. […] ED50 is calculated according to the method of Litchfield and Wilcoxon [J. Pharmacol. & Exper. Therap., 96, 99 (1949 )].

[4] = Acute toxicity (LD50) in mice; design: species or system mouse (male, dd strain); details: in vivo, mouse, observed one week
Method: (§2) The LD50 is calculated according to the method of Litchfield and Wilcoxon [J. of Pharmacol. and Exper. Therap., 96, 99 (1949)]. Male mice of the dd strain weighing 19-21 g and male rats of the Wistar strain weighing 80-100 g are used. One group consists of 10 mice or 10 rats. The compound of formula (I) and pentazocine are administered subcutaneously or orally to the test animals which are observed for one week.

[5] = Analgesic activity compared with pentazocine (general statement); type: in vivo; details: in words
[6] = Margin of safety (R = LD50/ED50), bradykinin, rat; details: in vivo, sc, S.C. in rat
Method: as §2, §1
The usefulness of the compound as medicament is expressed by margin of safety (R) of the compound which is calculated by (LD50 /ED50). […]

[7] = Acute toxicity (LD50) in rats; design: species or system rat (male, Wistar strain); details: in vivo, rat, observed one week
Method: as §2

[8] = system: male mice of the dd strain; assay: Analgesic activity by tail pinch method; type: in vivo, mouse (male; details: mouse
Method: (III) Analgesic activity by tail pinch method:
The experiment is carried out according to the method of H. Takagi et al [Jap. J. Pharmacol., 16, 287 (1966)].
In this experiment, male mice of the dd strain weighing 19-21 g are used in groups, each consisting of 10 mice. Before the experiment, animals which are sensitive to pressure stimulation are selected in the following manner.
The compound of formula (I), pentazocine or morphine is administered subcutaneously or orally to the selected mice. At 15, 30, 60, 90, and 120 minutes after the administration, an artery clip is repeatedly applied to the root of the tail of each mouse. […] ED50 is calculated according to the method of Litchfield and Wilcoxon [J. Pharmacol. & Exper. Therap., 96, 99 (1949)].

[9] = Margin of safety (R = LD50/ED50), acetic acid writhing, mouse; details: in vivo
Method: as §2
Male mice of the dd strain weighing 19-21 g are used in groups, each consisting of 10 mice. The test compounds, i.e. the compound of formula (I), pentazocine and morphine are administered subcutaneously or orally to the test mice. Immediately after this, 0.2 ml of a 0.7% (v/v) aqueous solution of acetic acid is administered intraperitoneally to the test mice except those which has been administered orally with morphine, to which 0.2 ml of a 0.7% (v/v) aqueous solution of acetic acid is administered intraperitoneally at 15 minutes after a morphine administration. The mice of a control group are not administered with the test compounds but with only the acetic acid solution in a similar manner to that described above. At 10 minutes after the administration of acetic acid, the number of writhes is counted for 10 minutes. When the writhing numbers of the test group decrease to below 50% of the corresponding numbers of the control group, the test compound is determined to be analgesically active. ED50 is calculated according to the method of Litchfield and Wilcoxon [J. Pharmacol. & Exper. Therap., 96, 99 (1949)].
The usefulness of the compound as medicament is expressed by margin of safety (R) of the compound which is calculated by (LD50 /ED50). Compounds having higher R are deemed to be more useful as medicament than those having lower R. The margins of safety of the compound of formula (I) and pentazocine are shown in Table 6.

[10] = oral administration, read-out: ED50
[11] = sc, subcutaneous administration, read-out: ED50
[12] = sc, subcutaneous administration

| SMILES | ED50 [1, 10] | ED50 [1, 11] | ED50 ([2]; sc, read-out: ED50) | ED50 [3, 10] | ED50 [3, 11] | LD50 at 168 h [4, 12] | LD50 at 168 h ([4]; oral administration) | selectivity ratio [6] | LD50 at 168 h [7, 12] | LD50 at 168 h ([7]; oral administration) | ED50 [8, 10] | ED50 [8, 11] | selectivity ratio ([9]; po, P.O. in mouse) | selectivity ratio ([9]; sc, S.C. in mouse) | also measured |
| --- | --- | --- | --- | --- | --- | --- | --- | --- | --- | --- | --- | --- | --- | --- | --- |
| C=C(C)CCN1CCC2(C)c3cc(O)ccc3CC1C2C (stereo not drawn) [Compound of formula (I), 3-(3-methyl-3-butenyl)-1,2,3,4,5,6-hexahydro-6,11-dimethyl-8-hydroxy-2,6-methano-3-benzazocine] | 14.3 mg/kg | 0.09 mg/kg | 0.76 mg/kg | 35 mg/kg | 0.38 mg/kg | 80 mg/kg | 205 mg/kg | 161 | 61 mg/kg | > 300 mg/kg | 29.3 mg/kg | 0.51 mg/kg | 14.3 | 889 | analgesic activity [5]: unexpectedly a better analgesic activity than the known pentazocine |
| CN1CC[C@]23c4c5ccc(O)c4O[C@H]2[C@@H](O)C=C[C@H]3[C@H]1C5 [Morphine, morphine] | – | – | – | – | – | – | – | – | – | – | – | – | – | – | ED50 ([1]; oral administration): 5.1 mg/kg; ED50 ([1]; subcutaneous administration): 0.56 mg/kg; ED50 [2]: 5.2 mg/kg; ED50 ([3]; oral administration): 85 mg/kg; ED50 ([3]; subcutaneous administration): 4.8 mg/kg; ED50 ([8]; oral administration): 35.5 mg/kg; ED50 ([8]; subcutaneous administration): 3.5 mg/kg |
| CC(C)=CCN1CCC2(C)c3cc(O)ccc3CC1C2C (stereo not drawn) [Pentazocine, 3-(3-methyl-2-butenyl)-1,2,3,4,5,6-hexahydro-6,11-dimethyl-8-hydroxy-2,6-methano-3-benzazocine] | 82 mg/kg | 3.45 mg/kg | > 40 mg/kg | > 100 mg/kg | 10.5 mg/kg | 140 mg/kg | 305 mg/kg | 15.7 | 165 mg/kg | > 400 mg/kg | > 40 mg/kg | > 40 mg/kg | 3.7 | 40.6 | – |

From US4126686A, “Analgesic 3-(3-methyl-3-butenyl)-1,2,3,4,5,6-hexahydro-6,11-dimethyl-8-hydroxy-2,6 -methano-3-benzazocine” (priority 1976, dated 1978)
